US10156521B2, “Red fluorescent aldehyde dehydrogenase (ALDH) substrate” (THE JOHNS HOPKINS UNIVERSITY, priority 2013, dated 2018)

Assay: Excitation and emission profiles by spectrofluorophotometer
Assay type: physicochemical
Conditions: 100% ethanol
Experimental: FIGS. 2a-2c show the excitation and emission profiles of candidate ALDH substrates. (a) AldeRed 493 aldehyde diethyl acetal, (b) AldeRed 588 aldehyde diethyl acetal, (c) AldeRed 659 aldehyde diethyl acetal. All the compounds were dissolved in 100% ethanol and both excitation and emission profiles were measured in 100% ethanol. The emission spectrum was measured with excitation at 493 nm for AldeRed 493 aldehyde diethyl acetal, at 560 nm for AldeRed 588, and at 650 nm for AldeRed 659-A. Blue line: excitation spectrum; red line: emission spectrum;
Reagents and Analyses. BODIPY® 576/589 succinimidyl ester and BODIPY® 650/665 succinimidyl ester were purchased from Life Technologies Inc., (Grand Island, N.Y.). (E)-4-(4-(dimethylamino)styryl)-1-(3-isothiocyanatopropyl)pyridin-1-ium chloride 1 was synthesized analogously to the previously reported di-butyl analog. Hassner, A., et al., J Org. Chem. 49, 2546-2551 (1984). Chemicals and solvents for synthesis and high-performance liquid chromatography (HPLC) were acquired from Sigma-Aldrich (Milwaukee, Wis.) or Fisher Scientific (Pittsburgh, Pa.), and used without further purification. HPLC was performed on an Agilent Prostar System equipped with a 325 Variable wavelength detector and controlled by Galaxie Software using a Phenomenex 4.6×250 mm Luna C18, 10 micron column. AldeRed 493 aldehyde diethyl acetal (FIGS. 14a-14b) and AldeRed 493-A (FIGS. 14c-14d) were chromatographed using Method 1. AldeRed 588 aldehyde diethyl acetal (FIGS. 15a-15b), AldeRed 588-A (FIGS. 15c-15d), AldeRed 659 aldehyde diethyl acetal (FIGS. 16a-16b), AldeRed 659-A (FIGS. 16c-16d) were chromatographed using Method 2. Method 1: Solvent A: 100% water; Solvent B: 100% methanol; 0-5 min 100% A, 5-25 min linear gradient from 100% A to 100% B, 25-30 min 100% B, 30-35 min linear gradient from 100% B to 100% A, 35-38 min 100% A, 2 mL/min. Method 2: Solvent A: 100% water; Solvent B: 100% acetonitrile; 0-20 min linear gradient from 90% A/10% B to 10% A/90% B; 20-25 min 10% A/90% B, 25-30 min linear gradient from 10% A/90% B to 90% A/10% B, 2 mL/min. ^1H-NMR spectra were obtained on a Bruker Avance 400 MHz Spectrometer. High resolution mass spectra were obtained by the University of Notre Dame Mass Spectrometry & Proteomics Facility (Notre Dame, Ind.) using ESI either by direct infusion on a Bruker micrOTOF-II or by LC elution via an ultra-high pressure Dionex® RSLC with C18 column coupled with a Bruker micrOTOF-Q II. The excitation and emission profiles of synthesized products were measured using a spectrofluorophotometer (Shimadzu, RF-5301pc, Columbia, Md.).
Three representative substrates of ALDH containing fluorophores that emit in the red region of the spectrum were synthesized (FIG. 1). […]

Work on `CCOC(CNC(=S)NCCC[n+]1ccc(C=Cc2ccc(N(C)C)cc2)cc1)OCC.[Cl-]` [compound 4] yielded a Maximum emission wavelength of 590 nm and a Maximum excitation wavelength of 493 nm.
For `CCOC(CNC(=O)CCc1ccc2n1[B-](F)(F)[N+]1=C(c3ccc[nH]3)C=CC1=C2)OCC` [compound 5], the Maximum emission wavelength was 599 nm and the Maximum excitation wavelength was 588 nm.
